We go through one molecule from article PMC3726336, “Product inhibition of cellulases studied with ^14C-labeled cellulose substrates” (Biotechnology for Biofuels, 2013).

Where two headings read alike, the source gives them in different places.

One assay concerns the target TaCel7A (Thermoascus aurantiacus, UniProt A7WNU2). As to the kind of experiment: Inhibition of synergistic hydrolysis of 14C-BC by TaCel7A (supplemented with EG TrCel5A). The following applies: 14C-BC substrate, read-out: IC50 for cellobiose. It counts as biochemical. On the procedure: To study the cellobiose inhibition of GH7 CBHs, the synergistic hydrolysis of ^14C-BC in the presence of added cellobiose was followed (Figure 3, Additional file 1: Figures S1 and S2). Because the cellobiose inhibition of the EG TrCel5A is much weaker than that of GH7 CBHs, the inhibition of synergistic hydrolysis apparently reflects the inhibition of CBH. The strength of cellobiose inhibition was analyzed using plots of (DCB/DCB=0) versus [cellobiose], where DCB and DCB=0 represent the degree of conversion of ^14C-BC in the presence and absence of cellobiose, respectively (Figure 4, Additional file 1: Figure S3). […]
(§1) where [CB] is the concentration of cellobiose; [^14CBC] is the concentration of ^14C-BC used in the experiment; and C1, C2 and H are empirical constants. Equation 5 differs from Equation 1 by the presence of constant H. H was included to improve the fit and is a constant that accounts for the background radioactivity (the degree of conversion that is independent of CBH). The degree of conversion resulting from the activity of the EG was measured in a separate experiment (Additional file 1: Figure S4) and was subtracted from the degree of conversion resulting from the synergistic hydrolysis. […] Provided with the values of C1, C2 and H, the value of IC50 was calculated as follows: […]

A further assay has as its target CtCel7A (Chaetomium thermophilum, UniProt A7WNU1). As to the kind of experiment: Inhibition of synergistic hydrolysis of 14C-BC by CtCel7A (supplemented with EG TrCel5A). The class given is biochemical. The conditions noted are these: 14C-BC substrate, read-out: IC50 for cellobiose. On the procedure: To study the cellobiose inhibition of GH7 CBHs, the synergistic hydrolysis of ^14C-BC in the presence of added cellobiose was followed (Figure 3, Additional file 1: Figures S1 and S2). Because the cellobiose inhibition of the EG TrCel5A is much weaker than that of GH7 CBHs, the inhibition of synergistic hydrolysis apparently reflects the inhibition of CBH. The strength of cellobiose inhibition was analyzed using plots of (DCB/DCB=0) versus [cellobiose], where DCB and DCB=0 represent the degree of conversion of ^14C-BC in the presence and absence of cellobiose, respectively (Figure 4, Additional file 1: Figure S3). In the case of experiments without added cellobiose, the reactions were provided with N188BG to prevent the inhibition of the CBH by the cellobiose released during hydrolysis. Experiments with no added cellobiose and without BG were also conducted. […] Therefore, the concentration of the cellobiose released during hydrolysis was added to the concentration of externally supplied cellobiose in generating the plots in Figure 4 and Additional file 1: Figure S3. For the calculation of IC50 values, the data were first fitted to hyperbolae:
as §1, with “hydrolysis. Thus, in the case of complete inhibition, H should have a value of zero.” for “hydrolysis.”
Using the time course data measured in the presence and absence of cellobiose, the IC50 values were first found separately for each time point (Figure 4A). […]

The term IC50 denotes the concentration that gives 50% inhibition.

Sequence of CtCel7A (A7WNU1 entry or part of it): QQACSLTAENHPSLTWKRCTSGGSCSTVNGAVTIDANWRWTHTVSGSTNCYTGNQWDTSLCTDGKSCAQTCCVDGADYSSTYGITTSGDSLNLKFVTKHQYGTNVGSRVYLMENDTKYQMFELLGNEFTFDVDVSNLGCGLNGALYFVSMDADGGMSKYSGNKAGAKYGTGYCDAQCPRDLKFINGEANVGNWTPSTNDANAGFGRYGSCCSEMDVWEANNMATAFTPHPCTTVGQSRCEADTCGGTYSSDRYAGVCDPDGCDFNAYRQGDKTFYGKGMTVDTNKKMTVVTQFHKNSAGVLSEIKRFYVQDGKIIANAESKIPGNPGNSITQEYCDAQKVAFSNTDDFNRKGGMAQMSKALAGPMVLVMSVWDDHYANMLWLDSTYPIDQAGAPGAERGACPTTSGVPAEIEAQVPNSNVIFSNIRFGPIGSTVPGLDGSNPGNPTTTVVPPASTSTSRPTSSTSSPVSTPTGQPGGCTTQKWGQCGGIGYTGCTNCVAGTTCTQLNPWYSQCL
Sequence of TaCel7A (A7WNU2 entry or part of it): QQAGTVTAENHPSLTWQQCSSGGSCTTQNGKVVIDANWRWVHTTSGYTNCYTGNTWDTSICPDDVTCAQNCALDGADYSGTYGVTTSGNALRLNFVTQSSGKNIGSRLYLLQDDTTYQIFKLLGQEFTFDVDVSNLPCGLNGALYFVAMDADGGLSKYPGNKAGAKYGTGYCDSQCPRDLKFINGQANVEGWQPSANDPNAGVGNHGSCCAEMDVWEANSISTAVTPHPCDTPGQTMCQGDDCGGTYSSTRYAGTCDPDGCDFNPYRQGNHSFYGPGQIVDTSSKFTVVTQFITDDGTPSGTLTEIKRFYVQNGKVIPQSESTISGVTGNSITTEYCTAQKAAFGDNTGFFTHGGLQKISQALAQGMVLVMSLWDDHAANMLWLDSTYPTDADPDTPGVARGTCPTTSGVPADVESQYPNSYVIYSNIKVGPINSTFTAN

Take `O=C[C@H](O)[C@@H](O)[C@H](O[C@@H]1O[C@H](CO)[C@@H](O)[C@H](O)[C@H]1O)[C@H](O)CO` [cellobiose, Cellobiose]: the IC50 at TaCel7A (35°C) is 580 ± 350 µM; at TaCel7A (50°C), 930 ± 100 µM; on CtCel7A (25°C) it was 410 ± 60 µM; at CtCel7A (35°C), 1080 ± 220 µM; at CtCel7A (50°C, IC50 increased with hydrolysis time) it was 2480 ± 910 µM.
